Measurements reported in patent US8791267B2, “Biaryl PDE4 inhibitors for treating inflammatory, cardiovascular and CNS disorders” (Decode Genetics EHF, priority 2007, dated 2014).
Structures can show the parent of a compound that is named as a salt.

Legend:
[1] = target: PDE4 (Homo sapiens, UniProt Q08499); test: In-vitro assay for PDE4 enzymes, real-time enzyme-coupled spectrophotometric assay (Table 9); format: biochemical; details: human PDE4D; activity class, Table 9; read-out: hPDE4D
[2] = target: PDE4B (Homo sapiens, UniProt Q07343); test: In-vitro assay for PDE4 enzymes, real-time enzyme-coupled spectrophotometric assay, PDE4B Activity (Table 10); format: biochemical; details: human PDE4B (hPDE4B), enzyme-coupled spectrophotometric assay; read-out: PDE4B Activity, hPDE4B
Sequence of PDE4B (Q07343 whole entry): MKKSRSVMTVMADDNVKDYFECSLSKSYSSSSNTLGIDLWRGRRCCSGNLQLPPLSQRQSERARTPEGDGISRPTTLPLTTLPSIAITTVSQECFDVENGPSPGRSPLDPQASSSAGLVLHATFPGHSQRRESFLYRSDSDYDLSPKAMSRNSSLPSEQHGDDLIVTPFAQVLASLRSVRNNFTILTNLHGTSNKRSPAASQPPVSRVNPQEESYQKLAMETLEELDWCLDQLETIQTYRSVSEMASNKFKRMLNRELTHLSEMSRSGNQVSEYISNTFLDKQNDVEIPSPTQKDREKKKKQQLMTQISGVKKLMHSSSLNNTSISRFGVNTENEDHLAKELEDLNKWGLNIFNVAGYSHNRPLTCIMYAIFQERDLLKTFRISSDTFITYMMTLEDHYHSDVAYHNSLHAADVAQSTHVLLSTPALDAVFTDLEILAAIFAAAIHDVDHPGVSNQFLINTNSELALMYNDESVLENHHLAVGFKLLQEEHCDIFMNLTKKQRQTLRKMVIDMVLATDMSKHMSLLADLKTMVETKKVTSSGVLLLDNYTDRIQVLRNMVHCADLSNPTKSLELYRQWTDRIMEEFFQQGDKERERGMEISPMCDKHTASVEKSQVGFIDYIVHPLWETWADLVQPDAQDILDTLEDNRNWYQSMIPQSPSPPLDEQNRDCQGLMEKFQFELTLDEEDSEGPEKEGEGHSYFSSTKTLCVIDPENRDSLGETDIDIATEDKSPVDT

Sequence of PDE4 (Q08499 whole entry): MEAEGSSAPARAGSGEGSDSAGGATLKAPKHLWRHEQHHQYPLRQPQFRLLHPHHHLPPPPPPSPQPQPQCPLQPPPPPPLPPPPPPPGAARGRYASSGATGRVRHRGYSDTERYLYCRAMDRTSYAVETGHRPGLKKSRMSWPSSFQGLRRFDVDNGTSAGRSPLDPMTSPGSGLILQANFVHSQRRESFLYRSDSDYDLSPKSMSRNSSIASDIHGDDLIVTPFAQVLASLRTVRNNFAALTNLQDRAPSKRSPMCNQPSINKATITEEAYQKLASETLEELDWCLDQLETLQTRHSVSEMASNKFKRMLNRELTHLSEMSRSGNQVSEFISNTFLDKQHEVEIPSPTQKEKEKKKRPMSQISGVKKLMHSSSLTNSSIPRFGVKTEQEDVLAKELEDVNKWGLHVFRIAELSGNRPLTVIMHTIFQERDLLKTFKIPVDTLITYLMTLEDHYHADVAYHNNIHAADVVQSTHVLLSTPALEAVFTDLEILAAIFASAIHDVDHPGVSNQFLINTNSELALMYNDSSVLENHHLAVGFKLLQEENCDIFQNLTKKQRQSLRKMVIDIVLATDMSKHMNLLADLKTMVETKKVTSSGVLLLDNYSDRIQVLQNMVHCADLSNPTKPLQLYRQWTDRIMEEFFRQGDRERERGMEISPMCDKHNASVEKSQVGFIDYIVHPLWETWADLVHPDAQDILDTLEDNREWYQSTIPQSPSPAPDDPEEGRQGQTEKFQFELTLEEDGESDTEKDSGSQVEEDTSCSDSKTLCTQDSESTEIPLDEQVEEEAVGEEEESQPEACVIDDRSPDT

SMILES | IC50 [1] | IC50 [2]
CCNC(=O)NCc1ccc(Cc2ccc(OC)c(-c3cccc(Cl)c3)c2)cn1 [P-597, 1-[5-(3′-chloro-6-methoxy-biphenyl-3-ylmethyl)-pyridin-2-ylmethyl]-3-ethyl-urea hydrochloride] | < 5 µM | < 5 µM
CNC(=O)NCc1ccc(Cc2ccc(OC(F)F)c(-c3cccc(Cl)c3)c2)cn1 [P-598, 1-[5-(3′-Chloro-6-difluoromethoxy-biphenyl-3-ylmethyl)-pyridin-2-ylmethyl]-3-methyl-urea hydrochloride] | < 5 µM | < 5 µM
COc1ccc(Cc2ccc(CO)nc2)c(F)c1-c1cccc(Cl)c1 [P-599, [5-(3′-Chloro-2-fluoro-6-methoxy-biphenyl-3-ylmethyl)-pyridin-2-yl]-methanol] | < 5 µM | < 5 µM
COc1ccc(Cc2ccc(C(C)(C)N)nc2)cc1-c1cccc(Cl)c1 [P-600, hydrochloride] | < 5 µM | 21 to 40 µM
COc1ccc(COc2ccnc(Cl)c2)cc1-c1cccc(Cl)c1 [P-603] | < 5 µM | < 5 µM
COc1ccc(COc2ccnc(Cl)c2)c(F)c1-c1cccc(Cl)c1 [P-604] | < 5 µM | < 5 µM
COc1ccc(Cc2ccc(C(C)(C)O)nc2)cc1-c1cccc(Cl)c1 [P-605, 2-[5-(3′-chloro-6-methoxy-biphenyl-3-ylmethyl)-pyridin-2-yl]-propan-2-ol HCl salt] | < 5 µM | < 5 µM
COc1ccc(Cc2ccc(C(C)N)nc2)c(F)c1-c1cccc(Cl)c1 (stereo not drawn) [P-606, 1-[5-(3′-Chloro-2-fluoro-6-methoxy-biphenyl-3-ylmethyl)-pyridin-2-yl]-ethylamine] | < 5 µM | < 5 µM
CC(C)(O)c1ccc(Cc2ccc(OC(F)F)c(-c3cccc(Cl)c3)c2)cn1 [P-610, 2-[5-(3′-Chloro-6-difluoromethoxy-biphenyl-3-ylmethyl)-pyridin-2-yl]-propan-2-ol hydrochloride] | < 5 µM | < 5 µM

Second part, the compound after the results:

IC50 [1] | IC50 [2] | SMILES
< 5 µM | < 5 µM | Nc1ccc(Cc2ccc(OC(F)F)c(-c3cccc(Cl)c3)c2)cn1 [P-611, 5-(3′-Chloro-6-difluoromethoxy-biphenyl-3-ylmethyl)-pyridin-2-ylamine hydrochloride]
< 5 µM | < 5 µM | COc1ccc(Cc2ccc(N3CCC[C@H]3C(N)=O)nc2)c(F)c1-c1cccc(Cl)c1 [P-612, (S)-1-[5-(3′-chloro-2-fluoro-6-methoxy-biphenyl-3-ylmethyl)-pyridin-2-yl]-pyrrolidine-2-carboxylic acid amide]
< 5 µM | < 5 µM | CCNC(=O)Nc1ncc(Cc2ccc(OC)c(-c3cccc(Cl)c3)c2F)cn1 [P-619]
< 5 µM | 21 to 40 µM | CC(=O)Nc1ccc(Cc2ccc(O)c(-c3cccc(Br)c3)c2F)cc1 [P-620]
< 5 µM | < 5 µM | CN(CC(N)=O)c1ccc(Cc2ccc(OC(F)F)c(-c3cccc(Cl)c3)c2)cn1 [P-621, 2-{[5-(3′-Chloro-6-difluoromethoxy-biphenyl-3-ylmethyl)-pyridin-2-yl]-methyl-amino}-acetamide]
< 5 µM | 5 to 20 µM | COc1ccc(CN2CCNC(=O)C2)c(F)c1-c1cccc(Cl)c1 [P-623]
